Assay results: PubChem BioAssay (NCI)
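Cultured in 96-well plates, cells were exposed to test compound for 48 hours across five concentrations. TGI denotes the concentration required for complete inhibition of growth.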

Tests used:
Assay in all cases: growth of human tumour cells (NCI), 48 h
BT-549 breast = test system: BT-549 breast
SF-295 CNS = test system: SF-295 CNS
CAKI-1 renal = test system: CAKI-1 renal
SNB-19 CNS = test system: SNB-19 CNS
SF-268 CNS = test system: SF-268 CNS
MDA-N = test system: MDA-N
HCT-15 colon = test system: HCT-15 colon
HCC-2998 colon = test system: HCC-2998 colon
SK-MEL-5 melanoma = test system: SK-MEL-5 melanoma
HCT-116 colon = test system: HCT-116 colon
SF-539 CNS = test system: SF-539 CNS
OVCAR-8 ovarian = test system: OVCAR-8 ovarian
A549 NSCLC = test system: A549 NSCLC
UACC-257 melanoma = test system: UACC-257 melanoma
MDA-MB-231 breast = test system: MDA-MB-231 breast
KM12 colon = test system: KM12 colon
HOP-62 NSCLC = test system: HOP-62 NSCLC
HT29 colon = test system: HT29 colon
SW-620 colon = test system: SW-620 colon
K-562 leukemia = test system: K-562 leukemia
EKVX NSCLC = test system: EKVX NSCLC
RXF 393 renal = test system: RXF 393 renal
OVCAR-5 ovarian = test system: OVCAR-5 ovarian
LOX IMVI melanoma = test system: LOX IMVI melanoma
MCF7 breast = test system: MCF7 breast
NCI/ADR-RES ovarian = test system: NCI/ADR-RES ovarian
OVCAR-3 ovarian = test system: OVCAR-3 ovarian
MALME-3M melanoma = test system: MALME-3M melanoma
IGROV1 ovarian = test system: IGROV1 ovarian
RPMI-8226 leukemia = test system: RPMI-8226 leukemia
PC-3 prostate = test system: PC-3 prostate
NCI-H460 lung = test system: NCI-H460 lung
HS 578T breast = test system: HS 578T breast
DU-145 prostate = test system: DU-145 prostate
SK-OV-3 ovarian = test system: SK-OV-3 ovarian
HOP-92 NSCLC = test system: HOP-92 NSCLC
M14 melanoma = test system: M14 melanoma
MOLT-4 leukemia = test system: MOLT-4 leukemia
SR leukemia = test system: SR leukemia
UACC-62 melanoma = test system: UACC-62 melanoma
NCI-H522 lung = test system: NCI-H522 lung
NCI-H23 lung = test system: NCI-H23 lung
A498 renal = test system: A498 renal
SK-MEL-28 melanoma = test system: SK-MEL-28 melanoma
COLO 205 colon = test system: COLO 205 colon
MDA-MB-435 = test system: MDA-MB-435
UO-31 renal = test system: UO-31 renal
TK-10 renal = test system: TK-10 renal
ACHN renal = test system: ACHN renal
SK-MEL-2 melanoma = test system: SK-MEL-2 melanoma
786-0 renal = test system: 786-0 renal
CCRF-CEM leukemia = test system: CCRF-CEM leukemia
HL-60(TB) leukemia = test system: HL-60(TB) leukemia
U251 CNS = test system: U251 CNS
SN12C renal = test system: SN12C renal
T-47D breast = test system: T-47D breast
OVCAR-4 ovarian = test system: OVCAR-4 ovarian
SNB-75 CNS = test system: SNB-75 CNS
NCI-H226 lung = test system: NCI-H226 lung

Measured: TGI

COc1ccc(CCN2C(=O)C(=O)C(C(=O)c3ccccc3)C2c2ccccc2)cc1OC (stereo not given)
not listed: OVCAR-4 ovarian | SNB-75 CNS | NCI-H226 lung
> 100 µM: all other assays above

COc1cc(Nc2nc(NS(=O)(=O)c3cc(C)c(Cl)cc3S)n[nH]2)cc(OC)c1OC
> 100 µM: all assays above
